These are literature values, as cited in patent EP0719130B1, “COMPLEX CALCIUM AND FLUORIDE CONTAINING MOUTH RINSES, DENTIFRICES, AND CHEWABLE TABLETS” (AMERICAN DENTAL ASSOCIATION HEALTH FOUNDATION, priority 1993, dated 1995).

For the series the following is noted: buffer acid or salt.
With `O=S(=O)(O)CCN1CCN(CCO)CC1` [HEPES], the pK is on record as 7.4.

In the case of `OCC(O)CO` [glycerol], the pK is listed as 14.15.

On to tyrosine salts, for which the pK is listed as 8.4.
